“And” between values parts separate entries of the source, which are not always exact repeats. Equal entries are not always repeated.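 Assay format: 96-well plates, 48-hour exposure. Abbreviation: GI50, concentration required for 50% inhibition of growth. TGI is the concentration that stops growth completely.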
How the values were obtained:
Test in all cases: NCI tumour cell line growth inhibition, 48 h
[1] = test system: NCI-H460 lung
[2] = test system: TK-10 renal
[3] = test system: CCRF-CEM leukemia
[4] = test system: OVCAR-3 ovarian
[5] = test system: SK-MEL-2 melanoma
[6] = test system: SNB-19 CNS
[7] = test system: KM20L2 colon
[8] = test system: MOLT-4 leukemia
[9] = test system: DLD-1 colon
[10] = test system: HS 578T breast

C[C@@H](c1ccccc1)N(CC#N)C1CCC[C@H]1O (some centres undefined)
TGI [1]: > 100 µM | TGI [2]: > 100 µM | TGI [3]: > 100 µM | TGI [4]: > 100 µM | TGI [5]: > 100 µM | TGI [6]: > 100 µM | TGI [7]: > 100 µM | TGI [8]: > 100 µM

O=C(O)c1oc2cccc3c2c1CCC3
TGI [1]: > 100 µM | TGI [2]: > 100 µM | TGI [3]: > 100 µM | TGI [4]: > 100 µM | TGI [5]: > 100 µM | TGI [6]: > 100 µM | TGI [8]: > 100 µM | TGI [9]: > 100 µM

CN(C)CCNc1c2c(c(NCCN(C)C)c3c(CO)c[nH]c13)C(=O)c1ccccc1C2=O
GI50 [1]: 1.92 µM | TGI [1]: 9.12 µM | GI50 [2]: 2.53 µM | TGI [2]: 7.55 µM | GI50 [3]: 3.07 µM | TGI [3]: > 32.1 µM | GI50 [10]: 3.36 µM | TGI [10]: 13.6 µM | GI50 [4]: 3.91 µM | TGI [4]: 25.1 µM | GI50 [5]: 11.2 µM | TGI [5]: 23.2 µM | GI50 [6]: 6.09 µM | TGI [6]: 22.3 µM | GI50 [8]: 0.371 µM

C[C@]12CC[C@H]3[C@@H](CCC4=C[C@@H](OC5OCC(OC6OC(CO)C(O)C(O)C6O)C(O)C5O)CC[C@@]43C=O)[C@@]1(O)CCC2C1=CC(=O)OC1 (some centres undefined)
TGI [1]: 0.534 µM | TGI [2]: 8.19 µM | TGI [3]: > 100 µM | TGI [10]: > 100 µM | TGI [4]: 1.43 µM | TGI [5]: 5.93 µM | TGI [6]: 11.9 µM | TGI [8]: 0.346 µM

COc1ccc(N2C(=O)C(N3C(=O)C=CC3=O)C2C=O)cc1 (centres undefined)
TGI [1]: > 100 µM | TGI [2]: > 100 µM | TGI [3]: > 100 µM | TGI [4]: > 100 µM | TGI [5]: > 100 µM | TGI [6]: > 100 µM | TGI [7]: > 100 µM | TGI [9]: > 100 µM

CC[C@H](C)[C@H](NC(=O)c1nccn1C)C(=O)N(C)[C@H](C[C@@H](OC(C)=O)c1nc(C(=O)N[C@@H](Cc2ccccc2)C[C@H](C)C(=O)OC)cs1)C(C)C
GI50 [1]: 1.22 µM | TGI [1]: > 33.3 µM | GI50 [2]: 7.49 µM | TGI [2]: > 33.3 µM | GI50 [3]: 1.04 µM | TGI [3]: > 33.3 µM | GI50 [10]: 1.11 µM | TGI [10]: > 33.3 µM | GI50 [4]: 0.481 µM | TGI [4]: 1.65 µM | GI50 [5]: 0.806 µM | TGI [5]: > 33.3 µM | GI50 [6]: 1.28 µM | TGI [6]: > 33.3 µM | GI50 [8]: 1.65 µM | TGI [8]: > 33.3 µM

S=c1[nH]nc(SCc2ccccc2Cl)c2[nH]cnc12
TGI [1]: > 100 µM | TGI [2]: > 100 µM | TGI [3]: > 100 µM | TGI [10]: > 100 µM | TGI [4]: > 100 µM | TGI [5]: > 100 µM | TGI [6]: > 100 µM | TGI [8]: > 100 µM

CC(C)(O)CCC(O)C(C)(O)C1CCC2(O)C3=CC(=O)C4(O)CC(O)C(O)CC4(C)C3CCC12C (centres undefined) (tested in a mixture with another compound)
TGI [1]: > 100 µM | TGI [2]: > 100 µM | TGI [3]: > 100 µM | TGI [10]: > 100 µM | TGI [4]: > 100 µM | TGI [5]: > 100 µM | TGI [6]: > 100 µM | TGI [8]: > 100 µM

COc1cc(N=Nc2cccc(S(N)(=O)=O)c2)c2ccccc2c1N
TGI [1]: 25.7 µM | TGI [2]: 30.1 µM | TGI [3]: 38.6 µM | TGI [10]: > 27.2 µM | TGI [4]: 27.5 µM | TGI [5]: 5.13 µM | TGI [6]: 42.2 µM | TGI [8]: 25.2 µM

Cc1[nH]n(-c2ccccc2)c(=O)c1C(=O)c1ccccc1
GI50 [1]: > 19.5 µM | TGI [1]: > 25 µM | GI50 [2]: > 25 µM | TGI [2]: > 25 µM | GI50 [3]: > 25 µM | TGI [3]: > 25 µM | GI50 [10]: > 25 µM | TGI [10]: > 25 µM | GI50 [4]: > 25 µM | TGI [4]: > 25 µM | GI50 [5]: > 25 µM | TGI [5]: > 25 µM | GI50 [6]: > 15.7 µM | TGI [6]: > 25 µM | GI50 [8]: > 25 µM | TGI [8]: > 25 µM

N#CC1CCc2c(c(-c3cn[nH]c3C(F)(F)F)nc3c(F)cc4[nH]ncc4c23)C1 (centres undefined)
GI50 [1]: 11.8 µM | TGI [1]: 38.8 µM | GI50 [2]: 6.28 µM | TGI [2]: 57.9 µM | GI50 [3]: 4.06 µM | TGI [3]: > 100 µM | GI50 [10]: 3.16 µM | TGI [10]: 11.5 µM | GI50 [4]: 4.89 µM | TGI [4]: 42.6 µM | GI50 [5]: 2.4 µM | TGI [5]: 6.78 µM | GI50 [6]: 5.53 µM | TGI [6]: 61.5 µM | GI50 [8]: 3.49 µM | TGI [8]: 42.7 µM

C[C@H]1CC2=CC(=O)CC[C@]2(C)[C@H]2CC[C@@]3(C)[C@@H](CC[C@]3(C)O)[C@H]12
GI50 [1]: 30 µM | TGI [1]: > 100 µM | GI50 [2]: 31.5 µM | TGI [2]: 97.5 µM | GI50 [3]: 12.1 µM | TGI [3]: 53.7 µM | GI50 [10]: 30.7 µM | TGI [10]: > 89 µM | GI50 [4]: 33.9 µM | TGI [4]: > 91.8 µM | GI50 [5]: 15.4 µM | TGI [5]: 37.4 µM | GI50 [6]: 43.3 µM | TGI [6]: > 100 µM | GI50 [8]: 19.3 µM | TGI [8]: 50.6 µM

COC(=O)C12C3C4C1C1C2C3C41C(=O)N(C(C)C)C(C)C (centres undefined)
TGI [1]: > 100 µM | TGI [2]: > 100 µM | TGI [3]: > 100 µM | TGI [4]: > 100 µM | TGI [6]: > 100 µM | TGI [7]: > 100 µM | TGI [8]: > 100 µM | TGI [9]: > 100 µM

Cc1ccc([N+](=O)[O-])cc1NC(=O)C(=O)C1CCC2=C(Sc3ccccc3N2)C1=O (centres undefined)
TGI [1]: > 100 µM | TGI [2]: > 100 µM | TGI [3]: > 100 µM | TGI [10]: > 100 µM | TGI [4]: 90.8 µM | TGI [5]: > 100 µM | TGI [6]: > 100 µM | TGI [8]: > 100 µM

O=[N+]([O-])c1ccc(NC(=S)N/N=C(\c2ccccc2)c2ccccn2)cc1
GI50 [1]: 1.47 µM | TGI [1]: 3.36 µM and 11.9 µM | TGI [2]: 2.51 µM | GI50 [3]: 0.0073 µM | TGI [3]: 2.31 µM and 10.2 µM | TGI [10]: 9.39 µM | TGI [4]: 1.36 µM and 2.76 µM | GI50 [5]: 2.05 µM | TGI [5]: 4.44 µM and 3.69 µM | TGI [6]: 3.12 µM and 2.97 µM | GI50 [8]: 0.00433 µM | TGI [8]: > 20.5 µM

COc1cc(CNC(=O)CCSc2nc3ccccc3c(=O)n2Cc2cc(OC)c(OC)c(OC)c2)cc(OC)c1OC
GI50 [1]: 4.19 µM | TGI [1]: 27.5 µM | GI50 [2]: 11 µM | TGI [2]: 44.4 µM | GI50 [3]: 4.91 µM | TGI [3]: > 100 µM | GI50 [10]: 5.24 µM | TGI [10]: > 100 µM | GI50 [4]: 4.23 µM | TGI [4]: 18.2 µM | GI50 [5]: 2.82 µM | TGI [5]: 8.14 µM | GI50 [6]: 6 µM | TGI [6]: > 100 µM | GI50 [8]: 7.38 µM | TGI [8]: > 100 µM

CC(=O)OCC(OC(C)=O)C(OC(C)=O)C(OC(C)=O)C(=O)CNn1c(-c2ccccc2Cl)nc2ccc(Br)cc2c1=O (centres undefined)
TGI [1]: > 100 µM | TGI [3]: > 100 µM | TGI [4]: > 100 µM | TGI [5]: > 100 µM | TGI [6]: > 100 µM | TGI [7]: > 100 µM | TGI [8]: > 100 µM

O=C(Nc1cccc([N+](=O)[O-])c1)c1cc2ccccc2cc1O
GI50 [1]: 1.87 µM | TGI [1]: > 100 µM | GI50 [2]: 4.03 µM | TGI [2]: 9.46 µM | GI50 [3]: 2.38 µM | TGI [3]: 6.66 µM | GI50 [10]: 1.24 µM | TGI [10]: 10.4 µM | GI50 [4]: 0.783 µM | TGI [4]: 7.33 µM | GI50 [5]: 0.876 µM | TGI [5]: 2.83 µM | GI50 [6]: 2.93 µM | TGI [6]: > 100 µM | GI50 [8]: 2.08 µM | TGI [8]: 6.24 µM

O=c1cccccc1NCCNc1cccccc1=O
TGI [1]: > 100 µM | TGI [3]: > 100 µM | TGI [4]: > 100 µM | TGI [5]: > 100 µM | TGI [6]: > 100 µM | TGI [7]: > 100 µM | TGI [8]: > 100 µM
